Measured values from patent publication US9505798B2, “Steroid compounds as RORyt modulators and uses thereof” (New York University, priority 2010, dated 2016).
Where two headings read alike, the source gives them in different places.

Tests used:
mouse RORγt = biological target: T1, mouse RORγt (Mus musculus, UniProt P51450); test: Drosophila S2 cell RORγt luciferase reporter; format: cell-based; conditions: for effect on RORγ transcriptional activity: S2 reporter system
T1 construct: mouse RORγt (amino acids 79 to the carboxyl terminal end); expressed in transfected cells
T1 sequence (P51450 79-495 isoform P51450-2): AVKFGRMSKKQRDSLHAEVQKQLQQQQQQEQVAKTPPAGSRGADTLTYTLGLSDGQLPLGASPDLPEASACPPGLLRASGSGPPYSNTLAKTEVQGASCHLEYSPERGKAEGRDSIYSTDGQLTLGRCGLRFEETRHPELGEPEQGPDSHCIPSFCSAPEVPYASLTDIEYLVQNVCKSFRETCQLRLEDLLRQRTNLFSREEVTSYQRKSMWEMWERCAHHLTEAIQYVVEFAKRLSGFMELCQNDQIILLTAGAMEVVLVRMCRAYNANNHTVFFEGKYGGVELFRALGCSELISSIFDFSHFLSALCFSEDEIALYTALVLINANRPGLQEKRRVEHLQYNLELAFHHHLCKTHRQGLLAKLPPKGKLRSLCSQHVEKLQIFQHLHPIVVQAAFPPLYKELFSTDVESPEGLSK
Source text: The Drosophila S2 cell line was originally purchased from Invitrogen and was maintained in Schneider's medium supplemented with 10% heat-inactivated bovine fetal calf serum and antibiotics (Invitrogen). […] The resulting chimeric gene was subcloned into the copper inducible pMT/V5-His A vector (Invitrogen). […] Coding sequences for firefly luciferase (Promega) were PCR amplified and subcloned into pUAST vector containing Gal4 binding enhancer sequences. Renilla luciferase construct under the polIII promoter was obtained from Dr. Dasgupta's laboratory (NYU medical center). In order to generate stable cell lines, cells were co-transfected with pMT-G4 DBD-RORγt, pMT-G4 DBD-RORα, pMT-G4 DBD-DHR3, or pMT-G4 DBDVP16 and pHygro plasmids (Invitrogen) and screened for resistant colonies in the presence of hygromycin (0.3 mg/mL). […] Using similar methods, stable clones with genomic integration of the luciferase reporters and other reporters were generated such as pMT-RORα_luc, pMT-DHR3_Luc, or pMT-VP16_luc.
(§1) The following representative compounds are tested for their RORγt inhibitory activity and toxicity.
Promega Dual-Glo system is widely used for HTS as the luciferase substrates. Cell culture medium was reduced to the final volume of 10 μl or less and 10 μl of Dual-glo and 10 μl of Stop-glo luciferase substrates were added in a sequencial manner (Promega). Firefly and Renilla luciferase activity was determined by measuring luminescence signals using an automated 384-well plate reader equipped with multiple stack units (such as the Analyst GT or Envision plate readers).
10,000 Drosophila stable S2 cells with genomic integration of the Cu2+-inducible G4 DBD-mouse RORγ construct were transfected with 5 ng of pUASTfirefly luciferase and 7 ng of Pol III-Renilla luciferase and dispensed into white bottom-tissue culture 384-well plates (Corning). […] The following morning, Stop-glo luciferase substrates (Promega) were used to measure luciferase activity.
The Drosophila S2 cell line was originally purchased from Invitrogen and was maintained in Schneider's Drosophila medium supplemented with 10% heat-inactivated bovine fetal calf serum and 1× antibiotic-antimycotic solution (Invitrogen). […] The resulting chimeric gene was subcloned into the copper inducible pMT/V5-His A vector (Invitrogen) and into the constitutive pAc vector. […] Coding sequences for firefly luciferase (Promega) were PCR amplified and subcloned into the pUAST vector containing five Gal4 binding enhancer sequences. The Renilla luciferase construct under a pol III promoter and the pAc vector were obtained from R. Dasgupta (NYU School of Medicine). To generate cell lines stably expressing various chimeric proteins upon copper addition, S2 cells were co-transfected with pMT plasmids encoding individual G4 DBD chimeric constructs and the pCoHygro plasmid (Invitrogen), before screening for resistant colonies in the presence of hygromycin (0.3 mg/mL). […] The human androgen receptor (hAR) expression plasmid pMK33-hAR and its reporter TAT3-Luc were obtained from M. Garabedian (NYU School of Medicine). […] R1881 (10 nM) and Dafachronic acid (10 μM) were used as ligands for hAR and Daf12. Upon treatment of cells with copper, in 384 well plates, there was specific increase in firefly luciferase activity versus normalized Renilla luciferase activity for all cell lines described above, validating the method for high-throughput screen.
Transfections of firefly and Renilla reporter constructs were performed using the Effectene kit from Qiagen according to the manufacturer's protocol with some modifications.

[1] = system: human embryonic kidney 293t cell lines; test: Toxicity on human embryonic kidney 293T cells; conditions: human embryonic kidney 293t cell lines
Description: as §1

RORγt = biological target: T2, RORγt (Mus musculus, UniProt P51450); format: cell-based; conditions: mouse T cells
T2 construct: expressed in transfected cells; host or cells: mouse naive CD4+ T cells, retroviral MIGr vector
T2 sequence (P51450 other isoform, or with tags, fused parts or gaps): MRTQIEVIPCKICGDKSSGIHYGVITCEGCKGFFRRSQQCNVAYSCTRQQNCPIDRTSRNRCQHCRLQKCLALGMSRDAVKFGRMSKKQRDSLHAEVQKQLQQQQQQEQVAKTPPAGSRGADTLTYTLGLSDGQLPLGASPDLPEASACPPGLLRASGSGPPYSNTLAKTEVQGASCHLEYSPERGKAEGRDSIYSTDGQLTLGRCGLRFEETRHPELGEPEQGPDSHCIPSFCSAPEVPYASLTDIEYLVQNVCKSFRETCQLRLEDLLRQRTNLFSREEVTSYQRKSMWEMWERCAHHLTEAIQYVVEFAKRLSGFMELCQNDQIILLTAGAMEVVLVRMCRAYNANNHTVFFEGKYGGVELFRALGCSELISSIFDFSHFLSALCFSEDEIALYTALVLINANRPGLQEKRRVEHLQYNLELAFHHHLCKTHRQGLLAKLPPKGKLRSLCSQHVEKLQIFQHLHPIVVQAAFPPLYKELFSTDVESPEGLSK
Description: Naive CD25^− CD62L^+CD44^low/int cells were sorted from RORγt^fl/fl mice and transduced with control-IRES-GFP (WT) or CRE-IRES-GFP (KO) retrovirus. […] FACS-sorted naive T cells were transduced with retroviral vectors encoding murine RORα-IRES-GFP or RORγt-IRES-GFP on Day 1 (16 h after TCR stimulation) and GFP expressing cells were gated for analysis on Day 5. […] Lymphocytes were isolated on day 21 after disease induction. The cells were stimulated for 4 h with PMA/Ionomycin and stained for surface markers and intracellular cytokines.
T cells were purified from lymph nodes and spleens of six to eight weeks old B6 mice (Taconic), by magnetically depleting B220^+ cells (autoMACS, Miltenyi), and then sorting CD8^−DAPI^−CD19^−CD4^+CD25^−CD62L^+CD44^low/Int naive T cells on a FACSAria (BD). […] For T cell polarization, 200 μl cells were seeded at 0.4×10^5 cells per mL in 96-well plates pre-coated with anti-CD3ε (5 μg/mL) and anti-CD28 (10 μg/mL). Cells were cultured for 4-5 days in Th17 (TGF-β (0.3 ng/mL), IL-6 (20 ng/mL), and anti-IFN-γ and anti-IL-4 (2 ng/mL)), Th1 (IL-12 (10 ng/mL), IL-2 (10 U/mL) and anti-IL-4 (2 ng/mL)), or Th2 (IL-4 (10 ng/mL), and anti-P35 and anti-IFN-γ 2 ng/mL)) conditions. For ectopic expression ROR proteins, native CD4^+ T cells were infected with retroviral MIGr-control, MIGr-RORα or MIGr-RORγ 24 hrs after activation, and cultured without exogenous cytokines or only with IL-6. At day 1, compounds dissolved in DMSO were added. For cytokine analysis, cells were incubated for 5 hours with phorbol 12-myristate 13-acetate (50 ng/mL; Sigma), ionomycin (500 ng/mL; Sigma) and GolgiStop (BD). Intracellular cytokine staining was performed according to the manufacturer's protocol (Cytofix/Cytoperm buffer set from BD) with alexa647-conjugated anti-IL-17a (eBioscience), and PE-conjugated anti-IFN-γ or anti-IL-4 (eBioscience). An LSR II (BD Biosciences) and FlowJo software (Tree Star) were used for flow cytometry and analysis. Dead cells were excluded using the Live/Dead fixable aqua dead cell stain kit (Invitrogen).

[2] = system: experimental autoimmune encephalomyelitis (EAE); test: Active EAE (MOG35-55/CFA) in C57BL/6 mice; format: in vivo, mouse; conditions: IP daily from day 2

`CC1O[C@@H](OC2C(C)O[C@H](OC3C(C)O[C@@H](O[C@H]4CC[C@@]5(C)[C@H](CC[C@@H]6[C@@H]5C[C@@H](O)[C@]5(C)[C@@H](C7=CC(=O)OC7Cc7ccccc7O)CC[C@]65O)C4)C[C@H]3O)C[C@H]2O)C[C@@H](O)C1O` (stereo partly shown) [Compound 18, Digoxin-21-salicylyl] was tested, and the IC50 (mouse RORγt) was less than 1 µM and the Human cell toxicity [1] was “xxx (cytotoxicity between 1-10 μM)”.
In the case of `CC1O[C@@H](OC2C(C)O[C@H](OC3C(C)O[C@@H](O[C@H]4CC[C@@]5(C)[C@H](CC[C@@H]6[C@@H]5C[C@@H](O)[C@]5(C)[C@@H](C7CC(=O)OC7Cc7ccccc7O)CC[C@]65O)C4)C[C@H]3O)C[C@H]2O)C[C@@H](O)C1O` (stereo partly shown) [Compound 19], the IC50 (mouse RORγt) is reported as 1 to 10 µM and the Human cell toxicity [1] is reported as “xxx (cytotoxicity between 1-10 μM)”.
Work on `CC1O[C@@H](OC2C(C)O[C@H](OC3C(C)O[C@@H](O[C@H]4CC[C@@]5(C)[C@H](CC[C@@H]6[C@@H]5C[C@@H](O)[C@]5(C)[C@@H](C7CC(O)OC7Cc7ccccc7O)CC[C@]65O)C4)C[C@H]3O)C[C@H]2O)C[C@@H](O)C1O` (stereo partly shown) [Compound 20] yielded an IC50 (mouse RORγt) greater than 20 µM.
Compound `CC(=O)OC1C(C)O[C@@H](OC2C(C)O[C@H](OC3C(C)O[C@@H](O[C@H]4CC[C@@]5(C)[C@H](CC[C@@H]6[C@@H]5C[C@@H](OC(C)=O)[C@]5(C)[C@@H](C7=CC(=O)OC7)CC[C@]65O)C4)C[C@H]3OC(C)=O)C[C@H]2OC(C)=O)C[C@H]1OC(C)=O` (stereo partly shown) [Compound 21] has an IC50 (mouse RORγt) greater than 20 µM.
`COC(=O)C1CCC2(O)C3CCC4CC(OC5CC(O)C(OC6CC(O)C(OC7CC(O)C(O)C(C)O7)C(C)O6)C(C)O5)CCC4(C)C3CC(O)C12C` (stereo not shown) [Compound 24] was tested, and the IC50 (mouse RORγt; S2 cell RORγt reporter, read-out: IC50) was 1 to 10 µM.
`C[C@H]1O[C@@H](O[C@H]2[C@@H](O)C[C@H](O[C@H]3[C@@H](O)C[C@H](O[C@H]4CC[C@@]5(C)[C@H](CC[C@@H]6[C@@H]5CC[C@]5(C)[C@@H](C7=CC(=O)OC7)CC[C@]65O)C4)O[C@@H]3C)O[C@@H]2C)C[C@H](O)[C@@H]1O` [Digitoxin] was tested, and the “effect on RORγ transcriptional activity” value (mouse RORγt) was “selectively inhibited RORγ with similar IC50 values” and the “RORγt-dependent Th17 cell differentiation” value (RORγt) was “selectively inhibited”.
In the case of `C[C@H]1O[C@@H](O[C@H]2CC[C@@]3(C)[C@H](CC[C@@H]4[C@@H]3C[C@@H](O)[C@]3(C)[C@@H](C5=CC(=O)OC5)CC[C@]43O)C2)C[C@H](O)[C@@H]1O[C@H]1C[C@H](O)[C@H](O[C@H]2C[C@H](O)[C@H](O[C@@H]3O[C@H](CO)[C@@H](O)[C@H](O)[C@H]3O)[C@@H](C)O2)[C@@H](C)O1` [deslanoside, Deslanoside], the “effect on RORγ transcriptional activity” value (mouse RORγt) is reported as “no significant effect”.
`C[C@]12CC[C@H](O)C[C@H]1CC[C@@H]1[C@@H]2CC[C@]2(C)[C@@H](C3=CC(=O)OC3)CC[C@]12O` [digitoxigenin, Digitoxigenin] was tested, and the “effect on RORγ transcriptional activity” value (mouse RORγt) was “no significant effect”.
With `C[C@]12CC[C@H](O)C[C@H]1CC[C@@H]1[C@@H]2C[C@@H](O)[C@]2(C)[C@@H](C3=CC(=O)OC3)CC[C@]12O` [digoxigenin, Digoxigenin] the “EAE onset and severity of progression” value [2] was “no effect”.
With `C[C@H]1O[C@@H](O[C@H]2CC[C@]3(C=O)[C@H]4CC[C@]5(C)[C@@H](C6=CC(=O)OC6)CC[C@]5(O)[C@@H]4CC[C@]3(O)C2)C[C@H](O)[C@@H]1O[C@@H]1O[C@H](CO)[C@@H](O)[C@H](O)[C@H]1O` [erysimoside, Erysimoside] the “effect on RORγ transcriptional activity” value (mouse RORγt) was “no significant effect”.
`CO[C@H]1C[C@H](O[C@H]2CC[C@@]3(C)[C@H](CC[C@@H]4[C@@H]3CC[C@]3(C)[C@@H](C5=CC(=O)OC5)[C@@H](OC(C)=O)C[C@]43O)C2)O[C@@H](C)[C@@H]1O` [oleandrin, Oleandrin] was tested, and the “effect on RORγ transcriptional activity” value (mouse RORγt) was “no significant effect”.
`C[C@]12C[C@@H](O)[C@H]3[C@@H](CC[C@]4(O)C[C@@H](O)C[C@@H](O)[C@]34CO)[C@@]1(O)CC[C@@H]2C1=CC(=O)OC1` [ouabagenin, Ouabagenin] was tested, and the “effect on RORγ transcriptional activity” value (mouse RORγt) was “no significant effect”.
For `C[C@@H]1O[C@@H](O[C@H]2C[C@@H](O)[C@]3(CO)[C@H]4[C@H](O)C[C@]5(C)[C@@H](C6=CC(=O)OC6)CC[C@]5(O)[C@@H]4CC[C@]3(O)C2)[C@H](O)[C@H](O)[C@H]1O` [ouabain, Ouabain octahydrate], the “effect on RORγ transcriptional activity” value (mouse RORγt) was “no significant effect”.
With `C[C@@H]1O[C@@H](O[C@@H]2C=C3CC[C@@H]4[C@H](CC[C@]5(C)[C@@H](c6ccc(=O)oc6)CC[C@]45O)[C@@]3(C)CC2)[C@H](O)[C@H](O)[C@H]1O` [proscillaridin A, Proscillaridin A] the “effect on RORγ transcriptional activity” value (mouse RORγt) was “no significant effect”.
β-acetyldigoxin was tested, and the “effect on RORγ transcriptional activity” value (mouse RORγt) was “selectively inhibited RORγ with similar IC50 values” and the “RORγt-dependent Th17 cell differentiation” value (RORγt) was “selectively inhibited”.
